# Results taken from patent publication US9302999B2, “Substituted triazoles as herbicides” (E. I. DU PONT DE NEMOURS AND COMPANY, priority 2012, dated 2016).
# Legend:
# Type in all cases: in vivo
# [1] = tested on: lambsquarters (Chenopodium album); assay: Test F pre-/postemergence: lambsquarters; conditions: Preemergence
# Summary of the method: (§1)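 0–100 visual control scores, taken 14–21 d after application in the greenhouse. Preemergence treatment was made to silt loam soil at sowing. Postemergence sprays hit 1- to 4-leaf plants (2–18 cm) in peat/vermiculite mix. Surfactant-containing non-phytotoxic solvent served as the vehicle.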
# [2] = tested on: surinam grass (Brachiaria decumbens); assay: Test F pre-/postemergence: surinam grass; conditions: Preemergence
# Summary of the method: as §1
# [3] = tested on: sandbur (southern sandbur, Cenchrus echinatus); assay: Test F pre-/postemergence: sandbur
# Description: Seeds of plant species selected from corn (Zea mays), soybean (Glycine max), velvetleaf (Abutilon theophrasti), lambsquarters (Chenopodium album), poinsettia, wild (wild poinsettia, Euphorbia heterophylla), pigweed, palmer (palmer pigweed, Amaranthus palmeri), waterhemp (common waterhemp, Amaranthus rudis), surinam grass (Brachiaria decumbens), crabgrass, Brazil (Brazilian crabgrass, Digitaria horizontalis), panicum, fall (fall panicum Panicum dichotomiflorum), crabgrass, large (large crabgrass, Digitaria sanguinalis), foxtail, giant (giant foxtail, Setaria faberii), foxtail, green (green foxtail Setaria viridis), goosegrass (Eleusine indica), ragweed (common ragweed, Ambrosia elatior), barnyardgrass (Echinochloa crus-galli), sandbur (southern sandbur, Cenchrus echinatus), arrowleaf sida (Sida rhombifolia), ryegrass, Italian (Italian ryegrass, Lolium multiflorum), dayflower, VA (Virginia (VA) dayflower, Commelina virginica), field bindweed (Convolvulus arvensis), cocklebur (common cocklebur, Xanthium strumarium), morningglory (Ipomoea coccinea), nightshade (eastern black nightshade, Solanum ptycanthum), kochia (Kochia scoparia), nutsedge, yellow (yellow nutsedge, Cyperus esculentus), johnsongrass (Sorghum halepense), smartweed (ladysthumb smartweed, Polygonum persicaria), and beggarticks (hairy beggarticks, Bidens pilosa), were planted into a silt loam soil and treated preemergence with test chemicals formulated in a non-phytotoxic solvent mixture which included a surfactant. At the same time, plants selected from these crop and weed species and also pigweed (Amaranthus retroflexus), waterhemp_RES1 (ALS/Triazine resistant common waterhemp, Amaranthus rudis) and waterhemp_RES2 (ALS/HPPD resistant common waterhemp, Amaranthus rudis) were planted in pots containing a planting medium comprising spaghnum peat moss, vermiculite, wetting agent and starter nutrients treated with postemergence applications of some of the test chemicals formulated in the same manner. Plants ranged in height from 2 to 18 cm for postemergence treatments (1- to 4-leaf stage).
# Treated plants and controls were maintained in a greenhouse for 14 to 21 days, after which time all species were compared to controls and visually evaluated. Plant response ratings, summarized in Table E, are based on a scale of 0 to 100 where 0 is no effect and 100 is complete control. A dash (-) response means no test result.
# [4] = 4 g ai/ha, scale 0 to 100, 0 no effect, 100 complete control
# [5] = 8 g ai/ha, scale 0 to 100, 0 no effect, 100 complete control
# [6] = 16 g ai/ha, scale 0 to 100 (0 no effect, 100 complete control)
# [7] = 31 g ai/ha, scale 0 to 100 (0 no effect, 100 complete control)
# [8] = Preemergence, 16 g ai/ha, scale 0 to 100 (0 no effect, 100 complete control)
# [9] = Preemergence, 31 g ai/ha, scale 0 to 100 (0 no effect, 100 complete control)
structure (smiles),measurement,setting,value
Cc1nn(-c2ccc(C(F)(F)F)c(F)c2)nc1Cc1ccnc(C(F)(F)F)c1 [Compound 162],"Plant response rating, Lambsquarters",[1]; [4],0
same,"Plant response rating, Lambsquarters",[1]; [5],0
same,"Plant response rating, Lambsquarters",[1]; [6],98
same,"Plant response rating, Lambsquarters",[1]; [7],98
same,"Plant response rating, Lambsquarters","[1]; 62 g ai/ha, scale 0 to 100",98
same,"Plant response rating, Surinam Grass",[2]; [4],0
same,"Plant response rating, Surinam Grass",[2]; [5],0
same,"Plant response rating, Sandbur","[3]; Postemergence, 4 g ai/ha, scale 0 to 100",10
same,"Plant response rating, Sandbur","[3]; Postemergence, 8 g ai/ha, scale 0 to 100",10
same,"Plant response rating, Sandbur","[3]; Postemergence, 16 g ai/ha, scale 0 to 100",15
same,"Plant response rating, Sandbur","[3]; Postemergence, 31 g ai/ha, scale 0 to 100",20
same,"Plant response rating, Sandbur","[3]; Postemergence, 62 g ai/ha, scale 0 to 100",20
same,"Plant response rating, Sandbur","[3]; Preemergence, 4 g ai/ha, scale 0 to 100, 0 no effect, 100 complete control",0
same,"Plant response rating, Sandbur","[3]; Preemergence, 8 g ai/ha, scale 0 to 100, 0 no effect, 100 complete control",0
same,"Plant response rating, Sandbur",[3]; [8],5
same,"Plant response rating, Sandbur",[3]; [9],15
CCCc1nn(-c2ccc(F)cc2)nc1Cc1ccnc(C(F)(F)F)c1 [Compound 153],"Plant response rating, Lambsquarters",[1]; [6],0
same,"Plant response rating, Lambsquarters",[1]; [7],65
same,"Plant response rating, Lambsquarters","[1]; 62 g ai/ha, scale 0 to 100",98
same,"Plant response rating, Lambsquarters","[1]; 125 g ai/ha, scale 0 to 100",98
same,"Plant response rating, Lambsquarters","[1]; 250 g ai/ha, scale 0 to 100",98
same,"Plant response rating, Surinam Grass",[2]; [6],0
same,"Plant response rating, Surinam Grass",[2]; [7],5
same,"Plant response rating, Surinam Grass","[2]; 125 g ai/ha, scale 0 to 100",75
same,"Plant response rating, Surinam Grass","[2]; 250 g ai/ha, scale 0 to 100",98
same,"Plant response rating, Sandbur",[3]; [8],5
same,"Plant response rating, Sandbur",[3]; [9],35
same,"Plant response rating, Sandbur","[3]; Preemergence, 125 g ai/ha, scale 0 to 100",95
same,"Plant response rating, Sandbur","[3]; Preemergence, 250 g ai/ha, scale 0 to 100",100
